Measured values: patent US20260041093A1, “Ionic Derivatives Of Aromatic Carboxylic Acid For Use As Plant Stimulants, Method For Stimulating Plants And Use Of These Derivatives For Manufacturing Compositions For Stimulating Plants” (FUNDACJA UNIWERSYTETU IM. ADAMA MICKIEWICZA W POZNANIU, priority 2022, published 2026)
Like-named read-outs stand apart in the source and are kept apart here.

Key:
[1] = tested on: tomato; assay: Greenhouse tomato sprayed three times: yield, health-promoting substances, leaf chlorophyll (Example 2); assay type: in vivo; conditions: 80 mg/L, benzothiadiazole salt 30 mg/L, chitosan lactate 50 mg/L
Description: Biostimulant properties were evaluated for the following stimulants: […] The evaluation of stimulant properties included the influence of tested substances on tomato yield, content of health-promoting substances in yield and chlorophyll content in tomato leaves. […] The untreated control plants were sprayed with distilled water. During the experiment, total yield weight, commercial and non-commercial yield and average commercial fruit weight, number of fruits per plant and average fruit weight per plant were evaluated. […] Chlorophyll was measured before each treatment and one day after each treatment using Minolta's SPAD-502 chlorophyll meter.

[2] = tested on: bell pepper; assay: Bell pepper seedlings in pots sprayed: height, fresh and dry weight (Example 5); assay type: in vivo; conditions: 3-chlorosalicylate 80 mg/L, benzothiadiazole salt 30 mg/L
Description: Pepper seedlings were planted into pots with peat substrate (P9 pots having 0,5 l). Pots were placed in greenhouse and cultivated for a 1 month. […] Plants treated with water only were the untreated control. During the course of the experiment, the height of the plants was measured, and at the end the fresh and dry weight of the aboveground part was evaluated.

[3] = tested on: winter wheat
Description: The experiment was established using the long strip method, in four repetitions Gross area of each plot was 48 m^2, while the harvest area was 23.25 m^2 net. Following variants of treatment were tested: • 1. Control—no stimulant application, standard fungicide programme • 2. Stimulant application at BBCH 32, standard fungicide programme • 3. Stimulant application at BBCH 32, no fungicide application • 4. Stimulant application at BBCH 55 and 10-12 days later, standard fungicide programme • 5. […] In this experiment, standard NPK fertilization was applied, using both bulk and liquid fertilizers.
The experiment was established using the long strip method, in four repetitions Gross area of each plot was 48 m2, while the harvest area was 23.25 m2 net. Following variants of treatment were tested: • 1. Control—no stimulant application, standard fungicide programme, • 2. Stimulant application at BBCH 32, standard fungicide programme • 3. Stimulant application at BBCH 32, no fungicide application • 4. Stimulant application at BBCH 55 and 10-12 days later, standard fungicide programme • 5. […] In the experiment, uniform NPK fertilization was applied, using both bulk and liquid fertilizers.

[4] = tested on: apple trees (M9 rootstocks); conditions: 4 sprays at 14-day intervals; 3-chlorosalicylate 100 mg/L, benzothiadiazole salt 25 mg/L
Text: Flowers were counted during the experiment, and the number of shoots and leaves in the fall.

[5] = tested on: lettuce; conditions: 3-chlorosalicylate 100 mg/L double application, benzothiadiazole salt 50 mg/L single application
Description: The purpose of the study was to determine the effect of foliar spraying with test solutions on lettuce plants (Lactuca sativa L. ‘Zeralda’) under abiotic stress conditions—low temperature. After 7 and 14 days after transplanting the plants to a permanent place, spraying of the plants was carried out. […] After another 7 days, low temperature stress was induced—plants were grown in three glass chambers with a day temperature of 22° C. and night temperatures of 4, 12 and 20° C. until harvest.

[6] = BBCH 32, standard fungicide protection, 80 mg/L, benzothiadiazole salt 30 mg/L
[7] = BBCH 32, stimulant only, 80 mg/L, benzothiadiazole salt 30 mg/L
[8] = BBCH 55, standard fungicide protection, 80 mg/L, benzothiadiazole salt 30 mg/L
[9] = BBCH 55, without fungicide, 80 mg/L, benzothiadiazole salt 30 mg/L
[10] = first sampling date, 80 mg/L, benzothiadiazole salt 30 mg/L
[11] = last sampling date, late milk, 80 mg/L, benzothiadiazole salt 30 mg/L

`C[N+](C)(C)CCO.O=C([O-])c1cccc(Cl)c1O` [choline 3-chlorosalicylate] was tested, and the “Chlorophyll content (SPAD), a day after treatment #1” value [1] was 61.4 b, the “Chlorophyll content (SPAD), a day after treatment #2” value [1] was 60.3 b and the “Chlorophyll content (SPAD), a day after treatment #3” value [1] was 62.5 b. The “Chlorophyll content (SPAD), Treatment #1” value ([1]; before treatment #1) was 50.2 a, the “Chlorophyll content (SPAD), Treatment #2” value ([1]; before treatment #2) was 49.4 a and the “Chlorophyll content (SPAD), Treatment #3” value ([1]; before treatment #3) was 50.9 a. For the same compound, the “Average fruit weight per plant” value ([1]; spray 3x) was 154.23 b g, the “Average weight of marketable fruit” value ([1]; spray 3x) was 26.25 b kg/m^2 and the Commercial yield ([1]; spray 3x) was 18.4 b kg/m^2. The “Number of fruits per plant” value ([1]; spray 3x) was 4.30 b, the Total yield ([1]; spray 3x) was 19.13 b kg/m^2 and the Calcium ([1]; tomato fruits) was 97.2 a mg/kg. For the same compound, the Lycopene ([1]; tomato fruits) was 36.4 b mg/kg, the Magnesium ([1]; tomato fruits) was 104.5 b mg/kg and the “Vit. C” value ([1]; tomato fruits) was 191.5 c mg/kg. For the same compound, the “Vit. E” value ([1]; tomato fruits) was 25.6 b mg/kg, the “°Brix (sugar content of the liquid expressed in degree of Brix)” value ([1]; tomato fruits) was 5.91 b g and the Average dry mass [2] was 12.2 b g. For the same compound, the Average fresh mass [2] was 85.7 b g, the “Average plant height, initial height, before first treatment” value [2] was 41.5 a mm and the “Average plant height, second treatment” value [2] was 161.8 c mm. For the same compound, the “Average plant height, third treatment” value [2] was 221.5 b mm, the Plant height increase [2] was 180.0 b mm and the “increase in calcium uptake” value [3, 6] was 4%. For the same compound, the “increase in gluten content of wheat grain” value (“increase in gluten content” below) [3, 6] was 8%, the “increase in magnesium uptake” value [3, 6] was 4% and the “increase in nitrogen uptake” value [3, 6] was 7%. The “increase in phosphorus uptake” value [3, 6] was 8%, the “increase in potassium uptake” value [3, 6] was 6% and the “increase in protein content of wheat grain” value (“increase in protein content” below) [3, 6] was 10%. For the same compound, the “increase in calcium uptake” value [3, 7] was 6%, the “increase in gluten content” value [3, 7] was 7% and the “increase in magnesium uptake” value [3, 7] was 5%. The “increase in nitrogen uptake” value [3, 7] was 7%, the “increase in phosphorus uptake” value [3, 7] was 9% and the “increase in potassium uptake” value [3, 7] was 8%. The “increase in protein content” value [3, 7] was 8%, the “increase in calcium uptake” value [3, 8] was 4% and the “increase in gluten content” value [3, 8] was 9%. The “increase in magnesium uptake” value [3, 8] was 5%, the “increase in nitrogen uptake” value [3, 8] was 14% and the “increase in phosphorus uptake” value [3, 8] was 12%. The “increase in potassium uptake” value [3, 8] was 6%, the “increase in protein content” value [3, 8] was 11% and the “increase in calcium uptake” value [3, 9] was 5%. For the same compound, the “increase in gluten content” value [3, 9] was 8%, the “increase in magnesium uptake” value [3, 9] was 6% and the “increase in nitrogen uptake” value [3, 9] was 16%. For the same compound, the “increase in phosphorus uptake” value [3, 9] was 12%, the “increase in potassium uptake” value [3, 9] was 5% and the “increase in protein content” value [3, 9] was 10%. For the same compound, the “fresh weight of aboveground part higher than control” value ([3]; first sampling date (beginning of shooting), first of two sprayed objects (with / without fungicide, respectively), 80 mg/L, benzothiadiazole salt 30 mg/L) was 12%, the “dry root mass higher than control” value [3, 10] was 19% and the “fresh root mass higher than control” value [3, 10] was 15%. For the same compound, the “dry weight of aboveground part higher than control” value ([3]; first sampling date, first of two sprayed objects, 80 mg/L, benzothiadiazole salt 30 mg/L) was 11%, the “fresh weight of aboveground part higher than control” value ([3]; first sampling date, second of two sprayed objects (with / without fungicide, respectively), 80 mg/L, benzothiadiazole salt 30 mg/L) was 17% and the “dry weight of aboveground part higher than control” value ([3]; first sampling date, second of two sprayed objects, 80 mg/L, benzothiadiazole salt 30 mg/L) was 16%. For the same compound, the “SPAD chlorophyll readings versus control” value ([3]; first term, stimulant at BBCH 32, with or without fungicide) was “significantly higher”, the “more aboveground biomass, BBCH 55 treatment compared to control” value [3, 11] was 31% and the “more aboveground biomass, BBCH 55 treatment compared to plants sprayed at an earlier stage” value [3, 11] was 12%. For the same compound, the “more root biomass, BBCH 55 treatment compared to control” value [3, 11] was 25%, the “more root biomass, BBCH 55 treatment compared to plants sprayed at an earlier stage” value [3, 11] was 17% and the “fresh and dry root weight versus other experimental facilities” value ([3]; second sampling date) was “comparable”. The “fresh and dry matter yields versus other experimental facilities” value ([3]; second sampling date, end of heading) was “comparable”, the SPAD chlorophyll readings ([3]; second term, stimulant at BBCH 32 without fungicide versus other objects) was “higher” and the “chlorophyll content of wheat leaves versus control” value ([3]; third term, with or without fungicide) was “significantly higher”. For the same compound, the “Average number of flowers per plant” value [4] was 30.3 b, the “Average number of leaves per plant” value [4] was 45.3 b and the “Average number of shoots per plant” value [4] was 6.7 b. For the same compound, the “Head weight, 4° C.” value ([5]; night temperature 4° C.) was 48.9 b g/plant, the “Head weight, 12° C.” value ([5]; night temperature 12° C.) was 52.8 b g/plant and the “Head weight, 20° C.” value ([5]; night temperature 20° C.) was 65.3 b g/plant.
